Data set [1] in a line: Pharmacokinetics of radiolabeled peptide in plasma by liquid scintillation counting (PKSolver 2 compartment). The format is in vivo, female Harlan athymic nude mice. Also noted: AUC0-inf (area under the curve): unit not given here. Conditions: 2 μCi/33 nmol.
The procedure of data set [2]: (§1) This example describes analysis of the pharmacokinetics of a peptide of the disclosure. A ^14C radiolabeled peptide of SEQ ID NO: 15 (SEQ ID NO: 15-r) was administered to 6-10 week old female Harlan athymic mice at a dose of 2 μCi/33 nmol via intravenous administration, intraperitoneal administration, oral administration or subcutaneous administration. At each time point, urine was collected by massaging the abdomen and mice were subsequently euthanized by CO2 asphyxiation. Blood was collected by cardiac exsanguination following cessation of respiratory movement. Plasma was separated by centrifugation and frozen until further analysis. Radioactivity in biological samples (plasma or urine) was detected by liquid scintillation counting on a Beckman Scintillation counter at a read time of 10 minutes. For HPLC evaluation, urine and plasma samples were diluted 20 μl in 80 μl and analyzed on an Agilent analytical HPLC equipped with an inline Raytest scintillation detector. Pharmacokinetics analysis was performed using the PKSolver 2 compartment IV or extravascular bolus.
HPLC was used to separate peptide fragments and liquid scintillation counting was used to quantify the radioactive signal of intact peptides or peptide fragment. SEQ ID NO: 15-r was spiked in as a positive control for intact peptide and Glycine was spiked in as a negative control for metabolized peptide. […] SEQ ID NO: 15-r was spiked in as a positive control for intact peptide and Glycine was spiked in as a negative control for metabolized peptide. […] SEQ ID NO: 15-r was spiked in as a positive control for intact peptide and Glycine was spiked in as a negative control for metabolized peptide. […] SEQ ID NO: 15-r was spiked in as a positive control for intact peptide and Glycine was spiked in as a negative control for metabolized peptide.

The procedure of data set [3]:
as §1
SEQ ID NO: 15-r was spiked in as a positive control for intact peptide and Glycine was spiked in as a negative control for metabolized peptide. […] HPLC was used to separate peptide fragments and liquid scintillation counting was used to quantify the radioactive signal of intact peptides or peptide fragment. […] SEQ ID NO: 15-r was spiked in as a positive control for intact peptide and Glycine was spiked in as a negative control for metabolized peptide. […] SEQ ID NO: 15-r was spiked in as a positive control for intact peptide and Glycine was spiked in as a negative control for metabolized peptide. […] SEQ ID NO: 15-r was spiked in as a positive control for intact peptide and Glycine was spiked in as a negative control for metabolized peptide.
The source holds these as a separate data set.

The next data set relates to HeLa cells. The experiment in a line: Uptake of peptide-AF647 conjugate in HeLa cells (fluorescence microscopy, flow cytometry, endocytosis inhibitors). The format is cell-based. Conditions: for effect of endocytic inhibitors on uptake of SEQ ID NO: 15-A: SEQ ID NO: 15-A at 4 μM, flow cytometry, pre-treatment of HeLa cells. The method, then: SEQ ID NO: 15-A and HIV-Tat-FITC, an HIV-Tat protein conjugated to a FITC fluorophore, were each dosed in HeLa cells at a concentration of 20 μM. The fluorescence image was taken on a Nikon Live microscope at 40× magnification, four hours after cells were dosed with SEQ ID NO: 15-A and HIV-Tat-FITC. The green fluorescence (FITC) and the red fluorescence (AF647) were located in different punctate regions, showing that the two molecules are localized in different vesicles.
Fluorescence was measured via flow cytometry and quantified to determine uptake of the peptide conjugate in cells.
SEQ ID NO: 15-A was dosed at a concentration of […] HIV-Tat-FITC was dosed at a concentration of 1 mM, and Dextran-Texas Red was dosed at a concentration of 25 mg/ml.
(In general: In flow cytometry, cells or beads pass a laser one at a time.)

Data set [4] is described as follows: Folding of manufactured peptide variants (HPLC traces). The format is physicochemical. The text has this: Generally, the NMR solution structures of related structural homologs can be used to inform mutational strategies that may improve the folding, stability, manufacturability, while maintaining a particular biological function. They can be used to predict the 3D pharmacophore of a group of structurally homologous scaffolds, as wells as to predict possible graft regions of related proteins to create chimeras with improved properties. The general strategy for producing homologs can include identification of a charged surface patch of a protein, mutation of critical amino acid positions and loops, and testing of sequences. This strategy can be used to design peptides with improved properties or to correct deleterious mutations that complicate folding and manufacturability. […] Accordingly, three amino acid positions (R11, R13, and R31) were chosen to be individually mutated to improve stability, yielding peptides of SEQ ID NO: 18, SEQ ID NO: 20, and SEQ ID NO: 25.
This example illustrates the modification of a function of a peptide. A peptide of SEQ ID NO: 15 was modified at positively charge patches to give a peptide of SEQ ID NO: 1 and a peptide of SEQ ID NO: 2. The modified peptides were expressed recombinantly. Mutations at positively charged patches of a peptide of SEQ ID NO: 15 were not well tolerated as indicated by the lack of folding purity indicated by the HPLC traces in FIG. 15.

Setting [5] is: IP, 3 hr, 0 = no intact peptide was measured.

Where two headings read alike, the source gives them in different places. Marks after values point to notes of the source that are not given here. Bridge positions count the residues as written; N and C are the ends. Ends that are not written are not given here. Peptide text beside a SMILES is read from it. * marks the point of attachment. Me2Gly = CN(C)CC(=O)*

Take `CC(C)C[C@@H]1NC(=O)[C@H]([C@@H](C)O)NC(=O)[C@@H]2CSSC[C@@H]3NC(=O)[C@H]([C@@H](C)O)NC(=O)[C@H](CC(N)=O)NC(=O)[C@H](CSSC[C@@H](C(=O)N4CCC[C@H]4C(=O)N[C@@H](CC(N)=O)C(=O)N[C@@H](CCC(N)=O)C(=O)O)NC(=O)[C@H](C)NC(=O)[C@H](CCCNC(=N)N)NC1=O)NC(=O)[C@H](CCCNC(=N)N)NC(=O)[C@H](CC(=O)O)NC(=O)[C@H](CCCNC(=N)N)NC(=O)[C@H](Cc1ccccc1)NC(=O)[C@H]([C@@H](C)O)NC(=O)[C@H](CCCNC(=N)N)NC(=O)CNC(=O)[C@@H]1CCCN1C(=O)[C@H](CCC(=O)O)NC(=O)[C@@H](NC(=O)[C@H](CO)NC(=O)[C@H](CO)NC(=O)CN(C)C)CSSC[C@H](NC(=O)[C@H](CCCNC(=N)N)NC3=O)C(=O)NCC(=O)N[C@@H](C)C(=O)N[C@@H](CC(=O)O)C(=O)NCC(=O)N[C@@H](CCCNC(=N)N)C(=O)N[C@@H](CO)C(=O)N[C@@H](C)C(=O)N[C@@H](C)C(=O)N2` [SEQ ID NO: 15-r] (Me2Gly-SSCEPGRTFRDRCNTCRCGADGRSAACTLRACPNQ-OH; disulfide 3-18, 13-32, 16-27 (inferred); N-terminus and C-terminus assumed): the “AUC0-inf (area under the curve)” value in data set [1] (IP) was 25.59; in data set [1] (IV), 19.08; in data set [1] (Oral), 46; in data set [1] (SC), 171. Further, the “CL/F (drug clearance over time)” value in data set [1] (IP) was 1.28 nmol/(pmol/μl)/h; in data set [1] (IV), 1.73 nmol/(pmol/μl)/h; in data set [1] (Oral), 0.53 nmol/(pmol/μl)/h; in data set [1] (SC), 0.144 nmol/(pmol/μl)/h. Moreover, the “Cmax (peak drug concentration)” value in data set [1] (IP) is 5.23 pmol/µL; in data set [1] (IV) it was 33* pmol/μl; in data set [1] (Oral), 0.59 pmol/µL; in data set [1] (SC) it was 8.57 pmol/µL. For the same compound, the “percentage of AUC of intact peptide of the total radioactive signal (total AUC) in plasma” value in data set [2] (IP, 5 min) was 94%; in data set [2] (IP, 30 min), 100%; in data set [2] (IP, 1 hr), 66%; in data set [2] (setting [5]) it was 0%; in data set [2] (IV, 5 min) it was 92%; in data set [2] (IV, 30 min), 100%. The “percentage of AUC of intact peptide of the total radioactive signal (total AUC) in plasma” value was 45% in data set [2] (PO, 8 hr); 100% in data set [2] (SC, 5 min); 88% in data set [2] (SC, 30 min); 50% in data set [2] (SC, 1 hr). Further, the “time by which intact peptide signal in plasma reached baseline” value in data set [2] (intraperitoneal injection) and in data set [2] (intravenous injection) was no more than 3 h throughout. Besides, the “intact peptide or breakdown products observed in plasma” value in data set [2] (oral administration) is “neither intact peptide or breakdown products of the peptide were observed in plasma”. Besides, the “percentage of AUC of intact peptide of the total radioactive signal (total AUC) in urine” value (“percentage of AUC of intact peptide … in urine” below) is 60% in data set [3] (IP, 5 min); 49% in data set [3] (IP, 30 min); 0% in data set [3] (setting [5]); 0% in data set [3] (IP, 24 hr, 0 = no intact peptide was measured); 0% in data set [3] (IP, 48 hr, 0 = no intact peptide was measured); 77% in data set [3] (IV, 5 min). Further, the “percentage of AUC of intact peptide … in urine” value in data set [3] (IV, 30 min) was found to be 47%; in data set [3] (IV, 1 hr) it was 43%; in data set [3] (IV, 3 hr, 0 = no intact peptide was measured), 0%; in data set [3] (IV, 8 hr, 0 = no intact peptide was measured), 0%; in data set [3] (IV, 24 hr, 0 = no intact peptide was measured), 0%; in data set [3] (PO, 3 hr, 0 = no intact peptide was measured) it was 0%. Besides, the “percentage of AUC of intact peptide … in urine” value stood at 0% in data set [3] (PO, 8 hr, 0 = no intact peptide was measured); 0% in data set [3] (PO, 48 hr, 0 = no intact peptide was measured); 0% in data set [3] (SC, 5 min, 0 = no intact peptide was measured); 0% in data set [3] (SC, 30 min, 0 = no intact peptide was measured); 0% in data set [3] (SC, 1 hr, 0 = no intact peptide was measured); 0% in data set [3] (SC, 8 hr, 0 = no intact peptide was measured). Moreover, in data set [3] (SC, 48 hr, 0 = no intact peptide was measured), the “percentage of AUC of intact peptide … in urine” value came to 0%. In data set [3] (intraperitoneal injection), the “time by which intact peptide in urine dropped to baseline” value is no more than 3 h. For the same compound, the “time by which intact peptide signal in urine reached baseline” value in data set [3] (intravenous injection) is no more than 3 h. For the same compound, the “intact peptide observed in urine” value in data set [3] (oral administration) and in data set [3] (subcutaneous administration) was “intact peptide was not observed in urine” throughout.

On to `CCCCC[C@@H](O)[C@H]1C(=O)O[C@H](C)[C@@H](O)/C=C/C=C/C=C/C=C/C=C(\C)[C@@H](O)C[C@H](O)C[C@H](O)C[C@H](O)C[C@H](O)C[C@H](O)C[C@@H]1O` [filipin], for which the “effect of endocytic inhibitors on uptake of SEQ ID NO: 15-A” value with HeLa cells is “inhibit the uptake of SEQ ID NO: 15-A”.

As to “GSSCEPGRTFADACNTCRCGADGRSAACTLAACPNQ [SEQ ID NO: 2]”, in data set [4], the “folding of the manufactured peptide” value was “unable to fold”.

“GSSCEPGRTFEDECNTCRCGADGRSAACTLEACPNQ [SEQ ID NO: 1]”: the “folding of the manufactured peptide” value in data set [4] is listed as “unable to fold”.

As to “GSSCEPGRTFEDRCNTCRCGADGRSAACTLRACPNQ [SEQ ID NO: 18]”, the “folding of the manufactured peptide” value in data set [4] was “Improved folding”.

As to “GSSCEPGRTFRDECNTCRCGADGRSAACTLRACPNQ [SEQ ID NO: 20]”, in data set [4], the “folding of the manufactured peptide” value is “Improved folding”.

As to “GSSCEPGRTFRDRCNTCRCGADGRSAACTLEACPNQ [SEQ ID NO: 25]”, the “folding of the manufactured peptide” value in data set [4] is on record as “Improved folding”.

For the compound “SEQ ID NO: 15-A (GSSCEPGRTFRDRCNTCRCGADGRSAACTLRACPNQ; cysteine pairing not given here; also: conjugate A)”, the “internalization by HeLa cells (fluorescence image)” value in the data set on HeLa cells (20 μM, four hours after dosing, 40×) is reported as “internalized by HeLa cells”.

“methyl-beta-cyclodextrin [methyl-beta-cyclodextrin (MBCD)]”: the “inhibition of uptake of SEQ ID NO: 15-A relative to dextran and HIV-Tat” value in the data set on HeLa cells (2 mM MBCD pre-treatment of HeLa cells) is given as “inhibits uptake of SEQ ID NO: 15-A to a greater extent than dextran, a fluid-phase marker, or HIV-Tat”. Also, the “effect of endocytic inhibitors on uptake of SEQ ID NO: 15-A” value with HeLa cells was “inhibit the uptake of SEQ ID NO: 15-A”.
